Measured values from US7074770B1, “Method of DNA vaccination” (SmithKline Beecham Corporation, priority 1998, dated 2006).
“Also recorded” adds a separate entry of the source. Like-named read-outs stand apart in the source and are kept apart here.

B1: GM-CSF: GM-CSF given as adjuvant with DNA immunisation (protein, UniProt P01587 18-141, looked up)
Granulocyte-macrophage …: APTRSPITVTRPWKHVEAIKEALNLLDDMPVTLNEEVEVVSNEFSFKKLTCVQTRLKIFEQGLRGNFTKLKGALNMTASYYQTYCPPTPETDCETQVTTYADFIDSLKTFLTDIPFECKKPGQK

What was measured:
[1] = system: EL4 cells pulsed with H-2 Db-restricted NP peptide; test: Lytic CTL response after gene gun NP DNA immunisation (europium release); assay type: in vivo, C57Bl/6 mice; settings: gene gun NP plasmid 10 ng; tucaresol s.c. 1 mg or oral 15 mg/kg x5 days; FIG. 9
Method: C57B1/6 mice were immunised with plasmid DNA encoding the influenza virus nucleoprotein with or without tucaresol given subcutaneously (FIG. 9a) or orally (FIG. 9b). Splenocytes were restimulated in-vitro with A/PR8/34 virus. Standard europium release techniques were used to determine specific lysis of MHC matched target cells pulsed with H-2 D^b-restricted NP peptide.
C57BI/6 mice were immunised with plasmid DNA (10 ng) encoding the influenza virus nucleoprotein (NP) with and without tucaresol given sub-cutaneously (sc). Mice were killed 14 days post-immunisation and restimulated in-vitro (5 days) with irradiated splenocytes pulsed with virus (A/PR8/34). Standard europium release techniques were used to determine specific lysis of MHC-matched target cells (EL4 cells) pulsed with H-2 D^b-restricted NP peptide. Non-specific lysis was less than 15% for all controls. Tucaresol was given subcutaneously (1 mg) at the site of intrepidermal gene-gun immunisation.
C57B1/6 mice were immunised with plasmid DNA (10 ng) encoding the influenza virus nucleoprotein (NP) with and without tucaresol given orally. Mice were killed 14 days post-immunisation and restimulated in-vitro (5 days) with irradiated splenocytes pulsed with virus (A/PR8/34). Standard europium release techniques were used to determine specific lysis of EL4 cells pulsed with H-2D^b-restricted NP peptide. […]

[2] = system: splenocytes re-stimulated with NP peptide; assay type: in vivo, C57BL/6 mice; settings: pVAC1.PR gene gun
[3] = system: CD4 Th-cells; settings: previously reported (22); cited from earlier work
[4] = system: S6C-E4 tumour cells; test: Tumour outgrowth inhibition in vivo after EBNA-4 plasmid immunisation; set-up: species or system ACA mice; settings: i.m. 40 μg E4 x3, tucaresol 200 μg s.c. days 1-4; challenge with S6C-E4 s.c.; FIG. 7
Method: Groups of ACA mice were immunised three times with p3, E4 or E4,T, and were subsequently challenged with […] S6C tumour cells. Mice were sacrificed when tumour diameter reached 20 mm.
Epstein Barr virus has been implicated in some cancers. We analysed the effect of tucaresol on tumour outgrowth inhibition in vivo as a result of pDNA vaccination with a plasmid expressing EBNA-4 (FIG. 7). Mice were immunised by intramuscular injection with 40 μg of either control mock plasmid pCDNA3 (P3), plasmid expressing EBNA-4 (E4) or plasmid expressing EBNA-4 followed 1, 2, 3 and 4 days later with administration of 200 μg of tucaresol s.c.—i.e. 800 μg total tucaresol per mouse (E4T). This immunisation schedule was repeated 1 month and 2 months after the initial immunisation. Two weeks after the last immunisation mice were challenged with […] S6C-E4 tumour cells s.c. Mice were sacrificed when the tumour reached a 20 mm diameter.

[5] = system: mycobacterial hsp65 (M.hsp65); assay type: in vivo, mice
[6] = system: Jk-A2/kb target cells pulsed with M.hsp65 peptide; assay type: in vivo, HLA A2 transgenic mice
[7] = system: lymph node T cells (response to ovalbumin peptide); test: T-cell priming after gene gun DNA immunisation (pVAC1.Ova) with conventional adjuvants; assay type: in vivo, mice; settings: gene gun pVAC1.Ova with or without adjuvants given s.c.; 3 days later
Description: Proliferation of lymph node T cells in response to pDNA or DNA encoding ovalbumin (PVAC1.Ova) in isolation and in combination with adjuvants LPS, CFA, GM-CSF and Heat-Killed Listeria monocytogenes (HKLM).
Lymphoid cells from TCR-transgenic mice, expressing a receptor specific for an ovalbumin antigen were transferred into normal syngeneic mice. These mice were then immunised subcutaneously (by means of gene gun) with plasmid DNA (pVAC1) or with plasmid DNA construct encoding ovalbumin (pVAC1.Ova) with or without adjuvants given subcutaneously. Three days later, regional lymph node cells were removed and their proliferative response to ovalbumin peptide was measured by means of incorporation of tritiated thymidine into DNA. This provides a measure of the degree of specific T-cell priming that occurred in vivo in response to immunisation. […] However, in contrast to the conventional peptide immunisation, none of the adjuvants were able to enhance this response to DNA immunisation.

Row | Molecule | lytic CTL response (specific lysis) [1] | CTL cytokine response (IFNγ positive cells per 10e6 splenocytes) ([2]; tucaresol oral gavage 15 mg/kg daily for 5 days) | CTL cytokine response (IFNγ positive cells per 10e6 splenocytes) ([2]; tucaresol s.c. 2×1 mg at site of DNA vaccination) | CD4 Th-cell response [3] | tumour outgrowth inhibition [4] | IgG2a anti-M.hsp65 antibody response (Th1 associated) ([5]; FIG. 3b) | IgG1 anti-M.hsp65 antibody response (Th2 associated) ([5]; compared to p3 immunised mice, FIG. 3c) | specific antibody response with control plasmid ([5]; control plasmid p3 and tucaresol (p3, T)) | anti-M.hsp65 antibody (IgG) titres ([5]; i.m. 20 μg p3M.65, tucaresol 1 mg s.c. simultaneously or cytokine plasmids equimolar, FIG. 3a) | CTL activity against target cells pulsed with the cognate M.hsp65 epitope ([6]; immunised twice, splenocytes stimulated with peptide, FIG. 6) | lytic activity against Jk-A2/kb cells unpulsed or pulsed with control influenza peptide ([6]; mouse, in vivo) | T-cell priming in response to DNA immunisation [7]
1 | O=Cc1c(O)cccc1OCc1ccc(C(=O)O)cc1 [tucaresol, 4-(2-formyl-3-hydroxyphenoxymethyl)benzoic acid] | Enhances | doubling of the response | small but significant increase | enhanced CD4 Th-cell response, selectively favouring a Th 1-type profile over Th 2 | significantly enhances; also recorded: markedly enhanced | significantly (P=0.003) increased; also recorded: strongly enhanced | did also induce | no increase in the specific antibody response | markedly increased; also recorded: comparable to the effect of the GM-CSF plasmid | high CTL activity; also recorded: markedly enhanced | much lower | 
2 | B1 |  |  |  |  |  |  |  |  |  |  |  | failed to enhance the response
